Patent US10723859B2, “Lignin valorization in ionic liquids and deep eutectic solvent via catalysis and biocatalysis” (University of Kentucky Research Foundation, priority 2017, dated 2020)
Entries after “also recorded” stand apart in the source; their conditions may differ.

Tests used:
Format in all cases: biochemical, Trametes versicolor
T. versicolor laccase [1] = test: AIL inhibition: Michaelis-Menten and Lineweaver-Burke curves of laccase; conditions: from changes in Vmax and Km with AIL concentration; ABTS substrate, 0.30 μg laccase
Procedure: Michaelis-Menten curves were generated by mixing appropriate concentrations of AILs and ABTS with 0.30 μg laccase in 96-well plates. Sodium citrate buffer (1.0 M, pH 5.0) was added for a final well volume of 250 μL. ABTS oxidation was measured using the same method as the initial screening. Laccase activity (V) was measured as moles of ABTS oxidized per minute per gram of laccase (mol ABTS·min^−1·g^−1 lac.) and Km was measured in μmol ABTS. Activity was fit to the Michaelis-Menten curve, shown in equation 1. [formula] These curves were linearized using the Lineweaver-Burke method, resulting in equation 2. [formula] Equation 2 was used to solve for Km and Vmax of laccase in known concentrations of AILs.

T. versicolor laccase [2] = test: Lignin model compound (GGE) depolymerization by laccase in AILs, HPLC; conditions: 2% [C2C1Im][OAc] or 1% [Ch][Lys], 40° C., O2 30 psi, 2 hours
Procedure: Appropriate concentrations of AIL, ABTS, laccase, and GGE were mixed. Sodium citrate buffer (1.0 M, pH 5.0) was added for a final reaction volume of 1 mL. Reactions were carried out in a batch reactor at 40° C. Pure O2 was flowed through the reactor for 1 minute. The release valve of the reactor was closed, pure O2 was flowed in at a pressure of 30 psi, and the reaction was allowed to proceed for an additional 2 hours. Product profiles were analyzed by HPLC using the method as described previously (Deng, Zhang et al. 2015). Water and acetonitrile (8:2 v/v) was used as a mobile phase. Mobile phase was flowed at 0.5 mL min^−1 for 30 minutes through an Ultimate 3000 HPLC system (Dionex Corporation, Sunnyvale, Calif., USA) equipped with ultraviolet (UV) detector. Separation was achieved through use of a Zorbax Eclipse XDB-C18 column (5 μm particle size, 150×4.6 mm i.d., Agilent Technologies, Santa Clara, Calif., USA) at 25° C. Elution profile of column was measured by UV absorbance at 280 nm.

T. versicolor laccase [3] = test: Biocompatibility screening of AILs with laccase (ABTS oxidation assay); conditions: for inhibitory effect on laccase (comparison among the 3 ILs): varied concentration of laccase and ILs
Procedure: All solutions used were adjusted to pH 5.0 prior to beginning experiments. Appropriate concentrations of laccase and AILs were mixed and added to clear, flat bottom 96-well Costar Assay Plates (Corning Inc.; Kenneburk, Me.). ABTS was added for a final concentration of 2 mM. Sodium citrate buffer (1.0 M, pH 5.0) was added for a final well volume of 250 μL. ABTS oxidation was measured for 5 minutes at 40° C. Absorbance readings were taken every 30 seconds at a wavelength of 420 nm using a SpectraMax M2 plate reader from Molecular Devices (Sunnyvale, Calif., USA). Plates were shaken for 5 seconds prior to initial reading and 3 seconds before each reading to ensure homogeneous well solutions.

SMILES | type of inhibition of laccase (T. versicolor laccase [1]) | degradation of GGE by laccase in AIL (T. versicolor laccase [2]; with mediator ABTS) | degradation of GGE by laccase in AIL (T. versicolor laccase [2]; without ABTS, 10% [DEA][HSO4]) | loss of laccase activity (T. versicolor laccase [3]; 2% AIL, ABTS oxidation, pH 5.0, 40° C.) [%] | inhibitory effect on laccase (comparison among the 3 ILs) (T. versicolor laccase [3]; ABTS assay) | loss of laccase activity (T. versicolor laccase [3]; 10% IL, ABTS assay) | loss of laccase activity (T. versicolor laccase [3]; 2% IL, ABTS assay) | inhibitory effect on laccase (comparison among the 3 ILs) (T. versicolor laccase [3]; ABTS assay, acetate)
C[N+](C)(C)CCO.NCCCC[C@H](N)C(=O)[O-] [[Ch][Lys], cholinium lysinate] | mixed inhibition | able to break down GGE | not capable of breaking down GGE | > 50 | more inhibitory | – | – | –
CCNCC.O=S(=O)(O)O [[DEA][HSO4], diethyl ammonium hydrogen sulfate] | noncompetitive inhibition | – | capable of degrading GGE | – | most biocompatible; also recorded: did not impede the ability of laccase to oxidize ABTS | losing little of its activity; also recorded: negligible to modest loss of laccase activity | – | –
CC(=O)[O-].CCn1cc[n+](C)c1 [[C2C1Im][OAc], 1-ethyl-3-methylimidazolium acetate] | mixed inhibition | able to break down GGE | not capable of breaking down GGE | – | – | – | significant loss of laccase activity | more inhibitory to laccase
